# Data: patent US20240148679A1, “METHODS AND COMPOSITIONS RELATED TO TREATMENT AND PREVENTION OF CANCER BY INHIBITION OF DGAT1 AND DGAT2” (Ohio State Innovation Foundation, priority 2019, published 2024)
# Key:
# [1] = tested on: GBM cells; experiment: GBM cell death, trypan blue counting; assay type: cell-based, human; settings: single inhibitor, 3 days
# [2] = tested on: U251 cells; experiment: Mitochondrial membrane potential (Rhodamine 123); assay type: cell-based, human; settings: 20 μg/ml, 24 hr
# Procedure: (A, B) Transmission electron microscopy analysis of the mitochondrial structure in U251cells treated with the DGAT1 inhibitor A-922500 (20 μg/ml) or DGAT2 inhibitor PF-06424439 (20 μg/ml) for 24 hr (A) or infected with shRNA-expressing lentivirus against DGAT1 for 48 hr (B). Scale bar, 500 nm. Mitochondria are indicated by arrows. (C) Representative fluorescence images of mitochondria in U251 cells treated with the DGAT1 inhibitor or DGAT2 inhibitor. Mitochondria were stained with MitoTracker Red. LDs were stained with BODIPY 493/503. Nuclei were stained with Hoechst 33342. Scale bar, 10 μm. (D) Representative fluorescence images of mitochondria in GBM cells infected with shRNA-expressing lentivirus against DGAT1 or DGAT2 for 48 hr. Mitochondria were stained with MitoTracker Red. LDs were stained with BODIPY 493/503. Nuclei were stained with Hoechst 33342. Scale bar, 10 μm. (E, F) Representative fluorescence image analysis of mitochondrial membrane potential stained with Rhodamine123 in U251 cells treated with the DGAT1 inhibitor A-922500 (20 μg/ml) for 24 hr or infected with shRNA-expressing lentivirus against DGAT1 for 48 hr. Nuclei were stained with Hoechst 33342. Scale bar, 10 μm. Rhodamine123 staining was quantified by ImageJ software in more than 100 cells. Statistical significance was determined by s t-test for inhibitor treatment or one-way ANOVA for shRNA knockdown. *P<0.0001. […]
# [3] = tested on: BIP and CHOP; experiment: Western blot of ER stress markers; assay type: cell-based, human; settings: 20 μg/ml, 24 hours, GBM cells
# Procedure: (A) Western blotting analysis of ER stress protein markers BIP and CHOP expression in GBM cells treated with the DGAT1 inhibitor A-922500 (20 μg/ml) for 24 hr. (B) Percentage of cell death in U251 cells treated with the ER stress pathway PERK inhibitor GSK2656157 or IRE1a inhibitor 4μ8C, alone or in combination with the DGAT1 inhibitor A-922500 (20 μg/ml) for 3 days. […] (C) Western blotting analysis of expression of ER stress protein markers BIP and CHOP in GBM cells infected with shRNA-expressing lentivirus against DGAT1 for 48 hr.
# Western Blotting Cells were lysed by RIPA buffer (Cat #NC9484499; Fisher Scientific) containing protease inhibitor cocktail (Cat #11836170001; Roche) and phosphatase inhibitor (Cat #04906845001; Roche). The proteins were separated by using 12% SDS-PAGE, and transferred onto a Hybond ECL nitrocellulose membrane (Cat #RPN3032D; GE Healthcare).
# After blocking for 1.5 h in 5% nonfat milk diluted by Tris-buffered saline containing 0.1% Tween 20, the membranes were incubated with various primary antibodies, followed by secondary antibodies conjugated to horseradish peroxidase.
# [4] = tested on: U87/EGFRvIII cells-derived subcutaneous model; experiment: U87/EGFRvIII subcutaneous xenograft model; assay type: in vivo, mice; settings: 120 mg/kg/day
# Procedure: (A-C) The effects of the DGAT1 inhibitor […] (120 mg/kg/day, oral gavage, details in Methods) in U87/EGFRvIII cells (1×10^6 cells/mouse)- or GBM30-derived subcutaneous models (4×10^6 cells/mouse), as shown by tumor growth rate in A and final isolated tumor images and weights in B. Tumor tissues were analyzed for LD presence by IF (TIP47 staining) and CPT1A and cleaved Caspase 3 levels by IHC in C. LD numbers and protein levels in tumor tissues were quantified by ImageJ and averaged from 5 separate areas in each tumor. The results for protein levels were normalized to control tumors (mean±SEM). Statistical significance was determined by one-way ANOVA. * P<0.01 for comparison with control group. Scale bars, m for IF, 40 m for IHC.
# It was next examined whether pharmacological inhibition of DGAT1 is effective in inhibiting GBM growth using U87/EGFRvIII and GBM30 xenograft models. Tumor cells were implanted in mice flanks and started treatment with DGAT1 inhibitor A-922500 (120 mg/kg/day) when tumor reached approximately 80 mm3.
# Intracranial xenograft models were generated using female athymic nude (NCr-nu/nu) mice (6-8 weeks of age obtained from OSU Target Validation Shared Resource). U87EGFRvIII (1×10^6) cells infected with shDGAT1-, shDGAT2- or scramble shRNA-expressing lentivirus for 48 hr (suspended in 100 μl PBS) were implanted into mice flank to generate subcutaneous model. For intracranial xenograft model, U87EGFRvIII-luc (1×10^5) or GBM30-luc (1×10^5) cells infected with shDGAT1-, shDGAT2- or scramble shRNA-expressing lentivirus for 48 hours (suspended in 5 μl PBS) were implanted into mouse brains. Mice were observed until they became moribund, at which point they were sacrificed. For drug treatment, U87EGFRvIII (1×10^6 cells suspended in 100 μl PBS) or GBM30 cells (4×10^6 suspended in 100 μl PBS and then mixed with 100 μl matrigel) were implanted in mouse flanks. DGAT1 inhibitor A-922500 (120 mg/kg/day, oral gavage) was formulated by 1% Tween 80 in PBS and administrated to mice when tumor size reached approximately 80 mm^3.
compound,measurement,setting,value
O=C(Nc1ccccc1)Nc1ccc(-c2ccc(C(=O)[C@@H]3CCC[C@H]3C(=O)O)cc2)cc1 [A-922500],GBM cell death,[1],greatly induced marked GBM cell death
same,mitochondria membrane potential,[2],significantly reduced
same,protein levels of BIP and CHOP (ER stress),[3],induces ER stress
same,protein levels of BIP and CHOP (ER stress),[3]; listed as A922500,increased
same,CPT1A expression in tumor tissues,[4],significantly increased CPT1A expression
same,LD formation in tumor tissues (TIP47),[4],dramatically suppressed LD formation
same,cleaved caspase 3 levels in tumor tissues,[4],markedly elevated cleaved caspase 3 levels
same,tumor growth,[4]; oral gavage,significantly suppressed tumor growth
same,tumor weight,[4]; oral gavage,dramatic reduction in tumor weight
same,tumor growth,"[4]; oral gavage, listed as A-900225",dramatically suppresses GBM tumor growth
